According to article PMC8968713, “Displacement of Native FXYD Protein From Na^+/K^+-ATPase With Novel FXYD Peptide Derivatives: Effects on Doxorubicin Cytotoxicity” (Frontiers in Oncology, 2022):
Read-outs that look alike come from different tables or passages of the source.

Legend:
[1] = system: BxPC-3 cells; assay: XTT cell viability, BxPC-3 cells; assay type: cell-based; settings: Homo sapiens, BXPC-3, 48 h, 5 experiments
Method: (§1) Human pancreatic cancer cells BxPC-3, Panc-1, non-transformed human mammary epithelial MCF-10A cells, and human breast cancer cells MCF-7 and MDA-MB-468 were obtained from the American Type Culture Collection (ATCC, Manassas, VA, USA). The cells were then cultured as previously described ([6], [9], [11]). All cells were used within 20 passages of thawing and were free of mycoplasma contamination as ascertained by mycoplasma PCR detection ([12]).
(§2) Cell metabolic activity was assayed as described ([14]) by estimating the reduction of XTT (2,3-bis(2-methoxy-4-nitro-5-sulfophenyl)-2H-tetrazolium-5-carboxyanilide), using a commercially available kit (Cell Signaling Technology, Danvers, MA, USA) according to the manufacturer’s instructions. Metabolic activity was used as a surrogate for viability. For each set of experimental groups, we performed 5 experiments with 4 replicates. Caspase-3-like activity is increased through a protease cascade during the early stage of apoptosis ([15]), and we measured activities of Caspase 3/7 (DEVDase) using the caspase fluorogenic substrate (Calbiochem, San Diego, CA, USA) as described ([9]).
(§3) Results are presented as mean ± standard deviation (SD). The IC50 values for Dox in cell viability studies were calculated by GraphPad Prism. Statistical comparisons were made with a Mann–Whitney test, ANOVA, and repeated-measure ANOVA with Geisser–Greenhouse epsilon correction. p < 0.05 was considered statistically significant.
(§4) We examined if displacement of WT FXYD3 from Na^+/K^+-ATPase is reflected in viability of cells exposed to FXYD3-pep SKSK with and without co-exposure to Dox for 48 h. The culture medium that contained FXYD3-pep SKSK and Dox was replaced with fresh medium every 24 h.

[2] = system: MCF-7 cells; assay: XTT cell viability, MCF-7 cells; assay type: cell-based, human; settings: for IC50: Homo sapiens, MCF7, 48 h, 48 h, XTT, 5 experiments
Method: as §1, §2, §3, §4

| IC50 ([1]; Dox alone (no peptide)) [nM] | IC50 ([1]; co-exposure to 1 μM FXYD3-pep SKSK, read-out: IC50 for Dox, cell viability) [nM] | IC50 ([1]; co-exposure to 2 μM FXYD3-pep SKSK, read-out: IC50 for Dox, cell viability) [nM] | IC50 ([2]; Dox alone (no peptide)) [nM] | IC50 ([2]; co-exposure to 2 µM FXYD3-pep SKSK, read-out: IC50 for Dox, cell viability) [nM] | SMILES | Effect of ouabain on Dox-induced cytotoxicity ([2]; 48-h co-exposure with 1 μM Dox, N = 5) | Effect of ouabain alone on cell viability ([2]; 48-h exposure, ouabain 25-150 nM, N = 5) |
| --- | --- | --- | --- | --- | --- | --- | --- |
| ~1740 | ~400 | ~300 | ~4300 | ~500 | COc1cccc2c1C(=O)c1c(O)c3c(c(O)c1C2=O)C[C@@](O)(C(=O)CO)C[C@@H]3O[C@H]1C[C@H](N)[C@H](O)[C@H](C)O1 [Dox, doxorubicin] |  |  |
|  |  |  |  |  | C[C@@H]1O[C@@H](O[C@H]2C[C@@H](O)[C@]3(CO)[C@H]4[C@H](O)C[C@]5(C)[C@@H](C6=CC(=O)OC6)CC[C@]5(O)[C@@H]4CC[C@]3(O)C2)[C@H](O)[C@H](O)[C@H]1O [ouabain] | modest augmentation of Dox-induced cytotoxicity decreased with an increase in ouabain concentration | reduced cell viability in a concentration-dependent manner |
